pIC50: −log10 of the molar value.
Target: human GluN1/GluN2B NMDA receptors (Homo sapiens (Human), UniProt Q13224)
Assay: Cell-based calcium flux (FLIPR) assay on cloned human NR1/NR2B ion channels expressed in mammalian cells
Details: standard assay, glutamate ~EC40, 10 μM glycine
Description: (§1) Effects of Test Articles on Cloned Human NR1/NR2B Ion Channels Expressed in Mammalian Cells
(§2) NMDA receptors are ion channels that are highly permeable to Ca^2+ ions, rendering it possible to monitor NMDA receptor function using cell-based calcium flux assay. In this assay, co-agonists glutamate and glycine are added to cells heterologously expressing human GluN1/GluN2B NMDA receptors to initiate cellular Ca^2+ influx. The time course of the changes in intracellular calcium is measured using a fluorescent dye and a FLIPR (Fluorometric Imaging Plate Reader) device.
(§3) Twenty four hours before measurements, the expression of the NMDA receptors in the stable cell line is induced with Tet-On inducible system in the presence of a non-selective NMDA receptor blocker. On the day of the experiment, cell culture media is carefully washed and the cells are loaded with Calcium 5 Dye Kit (Molecular Devices) in dye loading buffer containing 137 mM NaCl, 4 mM KCl, 2 mM CaCl2), 0.5 mM MgCl2(standard assay) or 1.5 mM MgCl2 (HTS assay), 10 mM HEPES and 5 mM D-glucose; pH 7.4. After 1 h incubation at the room temperature, the dye is washed away with the assay buffer (137 mM NaCl (standard assay) or 150 mM (HTS assay), 4 mM KCl (standard assay) or 3 mM (HTS assay), 2 mM CaCl2), 0.01 mM EDTA, 10 mM HEPES and 5 mM D-glucose; pH 7.4) In the FLIPR TETRA reader, various concentrations of the test compounds are added to the cells for 5 min while fluorescence is monitored to detect potential agonist activity. Next, co-agonists, glutamate and glycine are added for another 5 minutes. The concentration of glutamate corresponding to ˜EC40 (standard assay) or EC40 (HTS assay) is used to maximize the assay's signal window and ability to detect NMDA receptor antagonists and negative allosteric modulators. A saturating concentration (10 μM) of glycine is also present in the assay. A non-selective NMDA receptor antagonist, (+)MK-801 is used as a positive control for antagonist activity. The fluorescent signal in the presence of test compounds is quantified and normalized to the signal defined by the appropriate control wells.

human GluN1/GluN2B NMDA receptors (Homo sapiens (Human), UniProt Q13224), sequence (Q13224 27-1484, other chains not shown): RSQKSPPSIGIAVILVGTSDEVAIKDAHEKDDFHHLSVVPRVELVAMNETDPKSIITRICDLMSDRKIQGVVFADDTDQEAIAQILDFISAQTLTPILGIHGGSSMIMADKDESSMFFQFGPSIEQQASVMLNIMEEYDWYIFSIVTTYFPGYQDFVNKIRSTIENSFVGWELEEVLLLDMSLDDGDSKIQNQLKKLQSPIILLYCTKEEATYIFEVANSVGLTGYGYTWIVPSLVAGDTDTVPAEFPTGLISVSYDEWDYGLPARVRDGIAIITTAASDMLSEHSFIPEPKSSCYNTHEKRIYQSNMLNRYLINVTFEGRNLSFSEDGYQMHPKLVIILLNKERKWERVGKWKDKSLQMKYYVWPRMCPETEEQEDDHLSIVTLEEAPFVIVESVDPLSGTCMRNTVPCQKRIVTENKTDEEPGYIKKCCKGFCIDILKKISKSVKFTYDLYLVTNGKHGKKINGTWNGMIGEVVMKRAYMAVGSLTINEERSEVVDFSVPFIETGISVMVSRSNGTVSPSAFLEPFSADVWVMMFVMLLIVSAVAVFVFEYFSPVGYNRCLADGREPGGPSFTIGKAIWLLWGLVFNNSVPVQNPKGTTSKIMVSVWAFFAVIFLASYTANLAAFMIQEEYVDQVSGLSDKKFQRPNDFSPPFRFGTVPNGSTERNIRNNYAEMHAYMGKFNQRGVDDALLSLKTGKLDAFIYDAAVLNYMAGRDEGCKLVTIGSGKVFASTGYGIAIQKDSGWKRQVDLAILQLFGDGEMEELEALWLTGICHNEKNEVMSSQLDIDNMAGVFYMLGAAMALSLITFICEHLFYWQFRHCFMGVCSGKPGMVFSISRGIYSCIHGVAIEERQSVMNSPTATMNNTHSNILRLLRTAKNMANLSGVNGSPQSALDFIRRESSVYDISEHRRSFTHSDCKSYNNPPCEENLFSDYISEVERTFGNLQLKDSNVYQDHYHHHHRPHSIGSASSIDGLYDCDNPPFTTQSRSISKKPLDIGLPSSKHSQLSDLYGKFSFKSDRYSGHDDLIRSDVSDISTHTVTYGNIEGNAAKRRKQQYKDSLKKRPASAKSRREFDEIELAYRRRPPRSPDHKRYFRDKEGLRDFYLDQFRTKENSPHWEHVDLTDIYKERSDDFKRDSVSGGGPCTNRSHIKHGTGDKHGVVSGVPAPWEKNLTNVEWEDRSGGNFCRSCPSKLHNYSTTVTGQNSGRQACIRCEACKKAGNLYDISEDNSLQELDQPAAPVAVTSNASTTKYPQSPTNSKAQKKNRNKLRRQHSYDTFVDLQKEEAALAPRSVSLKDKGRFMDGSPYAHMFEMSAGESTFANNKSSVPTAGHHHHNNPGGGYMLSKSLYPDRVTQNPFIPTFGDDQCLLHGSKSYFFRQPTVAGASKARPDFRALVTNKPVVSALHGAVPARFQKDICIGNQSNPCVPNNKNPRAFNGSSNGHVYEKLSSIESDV

**Q.** With Cc1cc(-c2cnc3cnn(CC(=O)N(C)C)c3n2)ccc1Cl [Example 7] as the molecule, how does the pIC50 read?
**A.** 6.93

**Q.** How did the pIC50 turn out when Cc1cc(-c2cnc3cnn(CC(=O)N(C)C)c3n2)ccc1Cl [Example 8] was run?
**A.** 6.87

**Q.** With COc1ccc(-c2cnc3cnn(CC(=O)N(C)C)c3n2)cc1Cl [Example 9, 2-[6-(3-Chloro-4-methoxy-phenyl)pyrazolo[3,4-b]pyrazin-1-yl]-N,N-dimethyl-acetamide] as the molecule, how does the pIC50 read?
**A.** 6.23

**Q.** CN(C)C(=O)Cn1ncc2ncc(-c3ccc(F)c(C(C)(F)F)c3)nc21 [Example 13, 2-[6-[3-(1,1-Difluoroethyl)-4-fluoro-phenyl]pyrazolo[3,4-b]pyrazin-1-yl]-N,N-dimethyl-acetamide] was tested. Which pIC50 did it give?
**A.** 6.84

**Q.** CN(C)C(=O)Cn1ncc2ncc(-c3ccc(Cl)c(C(C)(F)F)c3)nc21 [Example 14, 2-[6-[4-Chloro-3-(1,1-difluoroethyl)phenyl]pyrazolo[3,4-b]pyrazin-1-yl]-N,N-dimethyl-acetamide] was tested. Which pIC50 did it give?
**A.** 6.83

**Q.** How did the pIC50 turn out when CN(C)C(=O)Cn1ncc2ncc(-c3ccc(Cl)c(C(F)(F)F)c3)nc21 [Example 15, 2-[6-[4-Chloro-3-(trifluoromethyl)phenyl]pyrazolo[3,4-b]pyrazin-1-yl]-N,N-dimethyl-acetamide] was run?
**A.** 6.57

**Q.** How did the pIC50 turn out when CN(C)C(=O)Cn1ncc2ncc(-c3ccc(OC(F)F)c(F)c3)nc21 [Example 17, 2-[6-[4-(Difluoromethoxy)-3-fluoro-phenyl]pyrazolo[3,4-b]pyrazin-1-yl]-N,N-dimethyl-acetamide] was run?
**A.** 6.07

**Q.** CN(C)C(=O)Cn1ncc2ncc(-c3ccc(OC(F)(F)F)c(Cl)c3)nc21 [Example 19, 2-[6-[3-Chloro-4-(trifluoromethoxy)phenyl]pyrazolo[3,4-b]pyrazin-1-yl]-N,N-dimethyl-acetamide] was tested. Which pIC50 did it give?
**A.** 5.98

**Q.** With Cc1c(F)ccc(-c2cnc3cnn(CC(=O)N(C)C)c3n2)c1F [Example 21, 2-[6-(2,4-Difluoro-3-methyl-phenyl)pyrazolo[3,4-b]pyrazin-1-yl]-N,N-dimethyl-acetamide] as the molecule, how does the pIC50 read?
**A.** 7.47

**Q.** CN(C)C(=O)Cn1ncc2ncc(-c3ccc(F)c(F)c3F)nc21 [Example 23, N,N-Dimethyl-2-[6-(2,3,4-trifluorophenyl)pyrazolo[3,4-b]pyrazin-1-yl]acetamide] was tested. Which pIC50 did it give?
**A.** 6.02

**Q.** CC(F)(F)c1cc(-c2cnc3cnn(CC(=O)N4CCC4)c3n2)ccc1Cl [Example 26, 1-(Azetidin-1-yl)-2-[6-[4-chloro-3-(1,1-difluoroethyl)phenyl]pyrazolo[3,4-b]pyrazin-1-yl]ethanone] was tested. Which pIC50 did it give?
**A.** 6.85

**Q.** How did the pIC50 turn out when O=C(Cn1ncc2ncc(-c3ccc(Cl)c(OC(F)F)c3)nc21)N1CCC1 [Example 29, 1-(Azetidin-1-yl)-2-[6-[4-chloro-3-(difluoromethoxy)phenyl]pyrazolo[3,4-b]pyrazin-1-yl]ethanone] was run?
**A.** 7.16

**Q.** CC1CN(C(=O)Cn2nc(F)c3ncc(-c4ccc(F)c(C(F)F)c4)nc32)C1 [Example 31, 2-[6-[3-(Difluoromethyl)-4-fluoro-phenyl]-3-fluoro-pyrazolo[3,4-b]pyrazin-1-yl]-1-(3-methylazetidin-1-yl)ethanone] was tested. Which pIC50 did it give?
**A.** 6.71

**Q.** O=C(Cn1nc(F)c2ncc(-c3ccc(F)c(C(F)F)c3)nc21)N1CC(F)C1 [Example 33, 2-[6-[3-(Difluoromethyl)-4-fluoro-phenyl]-3-fluoro-pyrazolo[3,4-b]pyrazin-1-yl]-1-(3-fluoroazetidin-1-yl)ethanone] was tested. Which pIC50 did it give?
**A.** 7.11

**Q.** How did the pIC50 turn out when CC1CN(C(=O)Cn2ncc3ncc(-c4ccc(Cl)c(C(C)(F)F)c4)nc32)C1 [Example 34, 2-[6-[4-Chloro-3-(1,1-difluoroethyl)phenyl]pyrazolo[3,4-b]pyrazin-1-yl]-1-(3-methylazetidin-1-yl)ethanone] was run?
**A.** 6.39

**Q.** CC(F)(F)c1cc(-c2cnc3cnn(CC(=O)N4CC(F)C4)c3n2)ccc1Cl [Example 35, 2-[6-[4-Chloro-3-(1,1-difluoroethyl)phenyl]pyrazolo[3,4-b]pyrazin-1-yl]-1-(3-fluoroazetidin-1-yl)ethanone] was tested. Which pIC50 did it give?
**A.** 6.67

**Q.** CC1CN(C(=O)Cn2ncc3ncc(-c4ccc(F)c(OC(F)F)c4)nc32)C1 [Example 36, 2-[6-[3-(Difluoromethoxy)-4-fluoro-phenyl]pyrazolo[3,4-b]pyrazin-1-yl]-1-(3-methylazetidin-1-yl)ethanone] was tested. Which pIC50 did it give?
**A.** 6.60

**Q.** How did the pIC50 turn out when CC(F)(F)c1cc(-c2cnc3cnn(CC(=O)N4CCOCC4)c3n2)ccc1Cl [Example 38, 2-[6-[4-Chloro-3-(1,1-difluoroethyl)phenyl]pyrazolo[3,4-b]pyrazin-1-yl]-1-morpholino-ethanone] was run?
**A.** 5.97

**Q.** Cc1nnc(Cn2ncc3ncc(-c4ccc(F)c(C(F)F)c4)nc32)s1 [Example 39, 2-[[6-[3-(Difluoromethyl)-4-fluoro-phenyl]pyrazolo[3,4-b]pyrazin-1-yl]methyl]-5-methyl-1,3,4-thiadiazole] was tested. Which pIC50 did it give?
**A.** 6.79

**Q.** Cc1cc(Cn2ncc3ncc(-c4ccc(F)c(C(F)F)c4)nc32)on1 [Example 41, 5-[[6-[3-(Difluoromethyl)-4-fluoro-phenyl]pyrazolo[3,4-b]pyrazin-1-yl]methyl]-3-methyl-isoxazole] was tested. Which pIC50 did it give?
**A.** 6.47

**Q.** With Fc1cncc(Cn2ncc3ncc(-c4ccc(F)c(C(F)F)c4)nc32)c1 [Example 42, 6-[3-(Difluoromethyl)-4-fluoro-phenyl]-1-[(5-fluoro-3-pyridyl)methyl]pyrazolo[3,4-b]pyrazine] as the molecule, how does the pIC50 read?
**A.** 7.10

**Q.** Fc1ccc(-c2cnc3cnn(Cc4cncc(Cl)c4)c3n2)cc1C(F)F [Example 43, 1-[(5-Chloro-3-pyridyl)methyl]-6-[3-(difluoromethyl)-4-fluoro-phenyl]pyrazolo[3,4-b]pyrazine] was tested. Which pIC50 did it give?
**A.** 6.60

**Q.** With COc1cncc(Cn2ncc3ncc(-c4ccc(F)c(C(F)F)c4)nc32)c1 [Example 44, 6-[3-(Difluoromethyl)-4-fluoro-phenyl]-1-[(5-methoxy-3-pyridyl)methyl]pyrazolo[3,4-b]pyrazine] as the molecule, how does the pIC50 read?
**A.** 6.78

**Q.** How did the pIC50 turn out when N#Cc1cncc(Cn2nc(F)c3ncc(-c4ccc(F)c(C(F)F)c4)nc32)c1 [Example 46, 5-[[6-[3-(Difluoromethyl)-4-fluoro-phenyl]-3-fluoro-pyrazolo[3,4-b]pyrazin-1-yl]methyl]pyridine-3-carbonitrile] was run?
**A.** 6.15

**Q.** With Fc1ccc(-c2cnc3cnn(Cc4cncc(Cl)c4)c3n2)cc1OC(F)F [Example 47, 1-[(5-Chloro-3-pyridyl)methyl]-6-[3-(difluoromethoxy)-4-fluoro-phenyl]pyrazolo[3,4-b]pyrazine] as the molecule, how does the pIC50 read?
**A.** 6.55

**Q.** CN(C)C(=O)Cn1ncc2ncc(-c3ccc(Cl)cc3F)nc21 [Example 48, 2-(6-(4-Chloro-2-fluorophenyl)-1H-pyrazolo[3,4-b]pyrazin-1-yl)-N,N-dimethylacetamide] was tested. Which pIC50 did it give?
**A.** 5.55

**Q.** How did the pIC50 turn out when CN(C)C(=O)Cn1ncc2ncc(-c3ccc(OC(F)(F)F)cc3)nc21 [Example 49, N,N-Dimethyl-2-(6-(4-(trifluoromethoxy)phenyl)-1H-pyrazolo[3,4-b]pyrazin-1-yl)acetamide] was run?
**A.** 5.56

**Q.** With CN(C)C(=O)Cn1ncc2ncc(-c3cc(F)ccc3F)nc21 [Example 50, 2-(6-(2,5-Difluorophenyl)-1H-pyrazolo[3,4-b]pyrazin-1-yl)-N,N-dimethylacetamide] as the molecule, how does the pIC50 read?
**A.** < 5.52

**Q.** COc1cncc(Cn2ncc3ncc(-c4ccc(F)c(OC(F)F)c4)nc32)c1 [Example 52, 6-(3-(Difluoromethoxy)-4-fluorophenyl)-1-((5-methoxypyridin-3-yl)methyl)-1H-pyrazolo[3,4-b]pyrazine] was tested. Which pIC50 did it give?
**A.** 5.42

Target: human GluN1/GluN2B NMDA receptors (Homo sapiens (Human), UniProt Q05586+Q13224)
Assay: as above
Details: standard assay, glutamate ~EC40, 10 μM glycine
Description: as §1, §2, §3

human GluN1/GluN2B NMDA receptors (Homo sapiens (Human), UniProt Q05586+Q13224), sequence (Q13224 27-1484, other chains not shown): as above

**Q.** With CCC(=O)Cn1ncc2ncc(-c3ccc(F)c(C(F)F)c3)nc21 [Example 1, 1-[6-[3-(Difluoromethyl)-4-fluoro-phenyl]pyrazolo[3,4-b]pyrazin-1-yl]butan-2-one] as the molecule, how does the pIC50 read?
**A.** 7.66

**Q.** With O=C(Cn1ncc2ncc(-c3ccc(Cl)c(OC(F)F)c3)nc21)C1CC1 [Example 2, 2-[6-[4-Chloro-3-(difluoromethoxy)phenyl]pyrazolo[3,4-b]pyrazin-1-yl]-1-cyclopropyl-ethanone] as the molecule, how does the pIC50 read?
**A.** 7.09

**Q.** With CN(C)C(=O)Cn1ncc2ncc(-c3ccc(C(F)(F)F)s3)nc21 [Example 3, N,N-Dimethyl-2-[6-[5-(trifluoromethyl)-2-thienyl]pyrazolo[3,4-b]pyrazin-1-yl]acetamide] as the molecule, how does the pIC50 read?
**A.** 6.24

**Q.** How did the pIC50 turn out when Cc1cccc(-c2cnc3cnn(CC(=O)N(C)C)c3n2)c1 [Example 4, N,N-Dimethyl-2-[6-(m-tolyl)pyrazolo[3,4-b]pyrazin-1-yl]acetamide] was run?
**A.** 6.39

**Q.** How did the pIC50 turn out when CN(C)C(=O)Cn1ncc2ncc(-c3ccc(Cl)c(F)c3)nc21 [Example 5, 2-[6-(4-Chloro-3-fluoro-phenyl)pyrazolo[3,4-b]pyrazin-1-yl]-N,N-dimethyl-acetamide] was run?
**A.** 6.08

**Q.** Cc1ccc(-c2cnc3cnn(CC(=O)N(C)C)c3n2)cc1F [Example 6, 2-[6-(3-Fluoro-4-methyl-phenyl)pyrazolo[3,4-b]pyrazin-1-yl]-N,N-dimethyl-acetamide] was tested. Which pIC50 did it give?
**A.** 6.04
